Test results reported in patent US7345020B2, “Mimetics of CD4 that inhibit immune response” (Thomas Jefferson University, priority 1995, dated 2008).
“Also recorded” adds a separate entry of the source. Positions of bridges follow the written chain, without caps; N, C: chain ends. Residues, ends and D or L forms follow the SMILES beside them.

Key:
[1] = tested on: experimental allergic encephalomyelitis (EAE); test: EAE inhibition in vivo (SJL EAE model); parameters: species or system mouse; conditions: for maximum mean EAE severity grade: SJL mice, 0.5 mg i.v. on day 12, 0-5 scale, untreated control maximum 2.0
Description: The C—C′ loop peptides were initially tested for efficacy in the SJL EAE model. In untreated animals, a high incidence of disease was observed 15-22 days after two s.c. inoculations of 1 mg of crude murine spinal cord homogenate in complete Freund's adjuvant. The severity of the disease was scored daily using the established 0-5 scale that describes the level of ascending paresis, Korngold, R., et al., 1986, Immunogenetics 24:309-315. The level of the mean EAE severity grade of mice for the untreated control group reached a maximum of 2.0. […] Also shown are the results of groups of mice that received the rD-mPGPtide, a mimic of residues 86-104 of murine homolog of CD4, which was described in Jameson et al. 1994, Nature 368:744-746.

[2] = tested on: human peripheral blood lymphocytes (responder cell alloreactive proliferation); conditions: for activity of cyclic CNSNQIC compared with this linear peptide in human MLR: linear peptides derived from the same C—C′ region
Description: For this assay, fresh peripheral blood lymphocytes from two different donors are co-cultured; the cells of one donor were irradiated and served as stimulators. Proliferation of these activated T cells was measured by measuring the incorporation of ^3H-thymidine at various timepoints.
For human MLR, 50 ml of whole blood was collected into anti-coagulant (ACD, acid citrate dextrose) containing tubes. In 50 ml conical tubes, 20 ml of blood was layered over 20 ml Ficoll 1077 (Sigma Chemical Co., St. Louis, Mo.) and centrifuged at 2000 rpm for 35-40 min at 15-20° C. Buffy coats and serum were collected in 3× volume of PBS centrifuged at 1500 rpm for 15 min at 15-20° C. Supernatants were discarded, cells were washed 2× in 50 ml PBS and resuspended in RPMI supplemented with 10% heat-inactivated (56°, 30 min) human serum (cat# H4522, Sigma), 50 IU/ml pen/strep and 2 mM (1% of 200 mM stock) L-glutamine (both from BioWhitaker).
In a 96-well flat bottom plate 1×10^5 responders were plated with 2×10^5 irradiated (3000 rad) simulators/well (added in 100 μl each), and incubated for 6, 7 or 8 days at 37° C., 7% CO2. Peptide analogues were added to quadruplicate wells, at a concentration of 100 μM (5 mg/ml stock) or titrations thereof, immediately after cells were plated. For radiolabelling, the cells were incubated with 1 μCi [^3H] TdR/well (25 μl) (diluted from 1 mCi/ml stock, Amersham) for the final 6 hours of incubation. Cells were harvested using a fiberfilter cell harvester (e.g., Harvester 96, Tomtec) and counted in a Beta Counter of Beta plate reader (1205 BS Betaplate Liquid Scintillation Counter, Wallac) with scintillation fluid.

[3] = tested on: murine spleen responder cells with irradiated C3H stimulator cells; test: Murine mixed lymphocyte reaction; assay type: cell-based, mouse; conditions: in vitro
Description: Mice were sacrificed and spleens aseptically removed. Cell suspensions were made by gently pressing spleens through nylon mesh, washing cells with RPMI 1640 and hypotonic lysis of red blood cells. After 3 washes in RPMI 1640, cells were resuspended in complete medium (RPMI 1640, 10% heat inactivated FCS, 2 mM L-glutamine, penicillin/streptomycin) and 5×10^5 responder cells incubated with 1×10^5 stimulator cells (C3H spleen cells, 2000 rad irradiated) in triplicate in round bottom 96 well plates (final volume 200 μl), and incubated with the indicated concentration of peptide (0.01, 0.1, 1, 10, 100 and 1000 μM peptide) for 5 days at 37° C., 5% CO2. 1 μCi/WELL OF [^3H] TdR was added 12 hours before thymidine incorporation was measured. Labelled DNA from cells was harvested onto glass fiber filters with a PHD cell harvester (Cambridge, Mass.), and CPM determined by liquid scintillation counting with the use of a 1209 Rackbeta (LKB, Piscataway, N.J.).

| Compound | maximum mean EAE severity grade [1] | effect on EAE in mice, in words [1] | activity of cyclic CNSNQIC compared with this linear peptide in human MLR [2] | other results |
| --- | --- | --- | --- | --- |
| CC[C@H](C)[C@@H]1NC(=O)[C@H](CCC(N)=O)NC(=O)[C@H](CC(N)=O)NC(=O)[C@H](CO)NC(=O)[C@H](CC(N)=O)NC(=O)[C@@H](N)CSSC[C@@H](C(=O)O)NC1=O [cyclic CNSNQIC, CNSNQIC] (H-CNSNQIC-OH; disulfide 1-7; N-terminus and C-terminus assumed) | 1.0 | effective to ameliorate EAE; also recorded: inhibitor of EAE in mice |  | inhibition of human T cell activation (suppressive effect) ([2]; 3 h): 54.4% |
| CNSNQIC (linear, no disulfide) [linear CNSNQIC] | 1.0 |  |  |  |
| KNSNQ |  |  | significantly higher activity |  |
| KNSNQI |  |  | significantly higher activity |  |
| NSNQI |  |  | significantly higher activity |  |
| YCNSNQIC |  | inhibitory activity comparable to the cyclic peptide CNSNQIC |  | inhibitory activity in murine MLR, in words [3]: inhibitory activity comparable to the cyclic peptide CNSNQIC; inhibitory activity in human MLR / human T cell proliferation, in words ([2]; in vitro): inhibitory activity comparable to the cyclic peptide CNSNQIC |
